Reference: ChEMBL document CHEMBL1201862, “PubChem BioAssay data set” (2004)
Active and inactive are the calls of the source.

Legend:
[1] = biological target: T1, Ubiquitin-conjugating enzyme E2 N (Homo sapiens, UniProt P61088); assay type: functional
T1 sequence (P61088 whole entry): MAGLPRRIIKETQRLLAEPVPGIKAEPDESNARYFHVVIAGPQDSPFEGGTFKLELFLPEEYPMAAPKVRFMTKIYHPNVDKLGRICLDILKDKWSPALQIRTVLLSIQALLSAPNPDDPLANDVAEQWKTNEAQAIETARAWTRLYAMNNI

BJ [2] = assay: cytotoxicity toward BJ-TERT fibroblasts, dose response, cell-based, RAS-independent, luminescence (AID 1933); assay type: functional; settings: Homo sapiens
[3] = biological target: T1, Ubiquitin-conjugating enzyme E2 N; assay type: functional; remark: listed apart in the source
[4] = biological target: T2, Type-1 angiotensin II receptor (Homo sapiens, UniProt P30556); assay: AT1 receptor agonists, dose response, selectivity assay for APJ receptor agonist project, cell-based, uHTS hits (AID 488865); assay type: functional;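 also: beta-arrestin recruitment to AT1 measured by enzyme fragment complementation luminescence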
T2 sequence (P30556 whole entry): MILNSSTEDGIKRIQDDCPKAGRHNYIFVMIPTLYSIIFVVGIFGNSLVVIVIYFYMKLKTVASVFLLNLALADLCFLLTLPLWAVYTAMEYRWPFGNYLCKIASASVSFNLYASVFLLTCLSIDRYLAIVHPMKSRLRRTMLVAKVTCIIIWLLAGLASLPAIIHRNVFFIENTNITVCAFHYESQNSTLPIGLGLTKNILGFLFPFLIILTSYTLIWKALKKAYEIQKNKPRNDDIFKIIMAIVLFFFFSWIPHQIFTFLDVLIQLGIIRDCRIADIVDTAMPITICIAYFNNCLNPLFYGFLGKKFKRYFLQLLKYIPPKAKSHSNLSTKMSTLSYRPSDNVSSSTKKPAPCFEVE

BJ [5] = assay: cytotoxicity toward BJ-TERT-LT-ST fibroblasts, dose response, cell-based, RAS-independent, luminescence (AID 1935); assay type: functional; settings: Homo sapiens;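 also: BJ fibroblasts immortalized with TERT plus LT and ST oncogenes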
Bcl-2-related protein A1 = biological target: T3, Bcl-2-related protein A1 (Mus musculus, UniProt Q07440); assay type: functional;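 also: confirmatory dose–response counterscreen on Bfl-1, used to check hits from a UBC13 polyubiquitin inhibitor campaign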
T3 sequence (Q07440 whole entry): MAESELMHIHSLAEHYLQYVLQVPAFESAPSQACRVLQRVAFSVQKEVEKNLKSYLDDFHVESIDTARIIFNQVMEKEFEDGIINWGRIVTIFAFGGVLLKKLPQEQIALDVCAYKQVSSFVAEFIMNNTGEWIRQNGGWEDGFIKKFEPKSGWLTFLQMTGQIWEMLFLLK

BJ [6] = assay: cells; assay type: functional, cell-based; settings: Homo sapiens
[7] = cytotoxicity toward DRD oncogenic fibroblasts, dose response, cell-based, non-viral oncogenic, luminescence (AID 1934); assay type: functional; settings: Homo sapiens
Paired box protein Pax-8 = Paired box protein Pax-8 (Homo sapiens, UniProt Q06710); assay: inhibitors of PAX8-driven TPO luciferase reporter, dose response, RMG-I cells, cherry-pick (AID 687027); assay type: functional, cell-based;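 also: luciferase reporter driven by Pax8 target thyroperoxidase promoter measured by SteadyGlo luminescence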
BJ [8] = assay: cytotoxicity toward Ras-transformed BJeLR fibroblasts, dose response, cell-based, alamar blue fluorescence, cherrypicked samples (AID 2631); assay type: functional; settings: Homo sapiens;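 also: confirmatory dose-response assay in RAS-dependent BJ fibroblasts engineered with TERT, LT and ST, with cytotoxicity read by fluorescence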
Protein RecA = biological target: T4, Protein RecA (Mycobacterium tuberculosis, UniProt P9WHJ3); assay: Fluorescence Cell-Free Homogeneous Dose Retest to Identify Inhibitors of RecA-Intein Splicing Activity. [Related pubchem assays (depositor defined):AID2097, AID2223, AID489010, AID492950]; assay type: functional
T4 sequence (P9WHJ3 whole entry): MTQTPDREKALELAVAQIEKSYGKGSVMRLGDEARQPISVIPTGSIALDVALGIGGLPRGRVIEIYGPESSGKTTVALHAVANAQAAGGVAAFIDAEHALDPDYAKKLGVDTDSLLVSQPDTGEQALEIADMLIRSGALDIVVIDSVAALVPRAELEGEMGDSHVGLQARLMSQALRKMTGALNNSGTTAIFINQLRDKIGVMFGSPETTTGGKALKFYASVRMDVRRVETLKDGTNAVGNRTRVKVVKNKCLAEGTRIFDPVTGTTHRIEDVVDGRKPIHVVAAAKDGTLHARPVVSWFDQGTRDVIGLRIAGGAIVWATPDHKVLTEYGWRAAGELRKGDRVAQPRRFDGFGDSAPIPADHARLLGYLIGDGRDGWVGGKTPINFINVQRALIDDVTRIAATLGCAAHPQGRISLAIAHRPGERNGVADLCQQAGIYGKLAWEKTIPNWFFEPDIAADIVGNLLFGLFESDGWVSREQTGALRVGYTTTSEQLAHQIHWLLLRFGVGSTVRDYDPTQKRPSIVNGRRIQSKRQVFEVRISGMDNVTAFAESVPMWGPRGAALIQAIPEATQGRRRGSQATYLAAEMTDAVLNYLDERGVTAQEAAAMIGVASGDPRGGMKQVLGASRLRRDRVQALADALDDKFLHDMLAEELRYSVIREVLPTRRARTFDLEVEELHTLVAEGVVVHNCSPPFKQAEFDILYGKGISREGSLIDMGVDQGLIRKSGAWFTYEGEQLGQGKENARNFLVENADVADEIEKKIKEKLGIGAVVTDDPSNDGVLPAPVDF

[9] = growth suppression of beta-catenin-knockout colon cells, dose response, cell-based, HCT116, human colon tumor (AID 1045); assay type: functional;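 also: HCT116 colon tumor cells with beta catenin knocked out; cells exposed to compound for 60 hours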
[10] = non-specific cell cytotoxicity, dose response, cytotoxicity control for PAX8 inhibitor project, plate reader, dry powder samples (AID 743021); assay type: functional, cell-based
[11] = biological target: T5, Heat shock factor protein 1 (Mus musculus, UniProt P38532); assay: inhibition of MG132-induced HSE-luciferase signal, confirmation, cell-based, NIH3T3, luminescence, dose retest (AID 2382); assay type: functional;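 also: NIH3T3 fibroblasts with HSF1-driven luciferase reporter stressed by proteasome inhibitor MG132; luminescence from HSF1-driven luciferase expression after 8 hours of MG132 stress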
T5 sequence (P38532 whole entry): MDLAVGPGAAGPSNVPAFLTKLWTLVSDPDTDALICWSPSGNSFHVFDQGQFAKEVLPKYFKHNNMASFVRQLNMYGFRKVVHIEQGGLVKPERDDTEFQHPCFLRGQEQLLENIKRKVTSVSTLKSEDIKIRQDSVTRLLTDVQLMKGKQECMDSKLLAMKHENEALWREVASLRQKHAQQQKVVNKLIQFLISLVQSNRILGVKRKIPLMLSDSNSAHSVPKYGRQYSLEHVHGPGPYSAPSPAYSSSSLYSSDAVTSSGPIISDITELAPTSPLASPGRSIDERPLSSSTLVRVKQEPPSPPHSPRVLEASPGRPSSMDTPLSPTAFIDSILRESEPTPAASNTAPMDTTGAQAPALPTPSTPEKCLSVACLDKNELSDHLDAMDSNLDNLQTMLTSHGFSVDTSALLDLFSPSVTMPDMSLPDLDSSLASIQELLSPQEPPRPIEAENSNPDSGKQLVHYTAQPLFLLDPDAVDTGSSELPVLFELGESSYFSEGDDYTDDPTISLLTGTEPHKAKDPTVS

[12] = growth suppression of PTEN-null colon cells, dose response, cell-based, HCT116 PTEN knockout (AID 1047); assay type: functional;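 also: HCT116 colon tumor cells with PTEN knocked out; cells exposed to compound for 60 hours before readout; potency for loss of cell viability measured by luminescence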
[13] = biological target: Glutathione S-transferase omega-1 (Homo sapiens, UniProt P78417); assay: GSTO1 inhibitor potency, recombinant enzyme, late-stage follow-up, biochemical, SE-Rh probe, in-gel fluorescence, powder samples (AID 463081); assay type: functional
[14] = biological target: T6, Microphthalmia-associated transcription factor (Homo sapiens, UniProt O75030); assay: TRPM1 promoter luciferase signal decrease, dose response, MITF inhibitor project, cell-based, SK-MEL-5, cherry-picked, set 3 (AID 493073); assay type: functional
T6 sequence (O75030 whole entry): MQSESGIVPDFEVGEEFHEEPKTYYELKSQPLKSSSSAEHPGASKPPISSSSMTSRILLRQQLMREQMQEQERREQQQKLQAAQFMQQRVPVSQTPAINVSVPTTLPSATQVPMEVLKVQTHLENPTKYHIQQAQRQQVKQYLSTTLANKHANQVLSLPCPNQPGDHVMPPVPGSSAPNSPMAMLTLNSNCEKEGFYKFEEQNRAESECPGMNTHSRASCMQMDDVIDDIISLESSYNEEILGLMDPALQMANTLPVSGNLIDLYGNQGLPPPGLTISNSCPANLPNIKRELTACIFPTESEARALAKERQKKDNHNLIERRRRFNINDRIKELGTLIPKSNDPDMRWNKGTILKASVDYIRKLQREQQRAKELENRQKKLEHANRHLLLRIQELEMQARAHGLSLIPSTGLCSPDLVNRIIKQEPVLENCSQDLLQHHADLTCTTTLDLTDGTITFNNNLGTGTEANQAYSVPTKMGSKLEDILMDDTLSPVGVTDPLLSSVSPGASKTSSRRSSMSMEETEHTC

[15] = biological target: T6, Microphthalmia-associated transcription factor; assay: MITF Measured in Cell-Based System Using Plate Reader - 2084-01_Inhibitor_DoseNoFile_CherryPick_Activity_Set2. [Related pubchem assays (depositor defined):AID488944]; assay type: functional
[16] = biological target: T6, Microphthalmia-associated transcription factor; assay: TRPM1 promoter luciferase signal decrease, dose response, MITF inhibitor project, cell-based, SK-MEL-5, cherry-picked, set 4 (AID 493102); assay type: functional
[17] = biological target: T7, Replicative DNA helicase DnaB (Mycobacterium tuberculosis, UniProt P9WMR3); assay: DnaB intein splicing inhibitors, dose response, biochemical, cell-free fluorescence (AID 449749); assay type: functional
T7 sequence (P9WMR3 whole entry): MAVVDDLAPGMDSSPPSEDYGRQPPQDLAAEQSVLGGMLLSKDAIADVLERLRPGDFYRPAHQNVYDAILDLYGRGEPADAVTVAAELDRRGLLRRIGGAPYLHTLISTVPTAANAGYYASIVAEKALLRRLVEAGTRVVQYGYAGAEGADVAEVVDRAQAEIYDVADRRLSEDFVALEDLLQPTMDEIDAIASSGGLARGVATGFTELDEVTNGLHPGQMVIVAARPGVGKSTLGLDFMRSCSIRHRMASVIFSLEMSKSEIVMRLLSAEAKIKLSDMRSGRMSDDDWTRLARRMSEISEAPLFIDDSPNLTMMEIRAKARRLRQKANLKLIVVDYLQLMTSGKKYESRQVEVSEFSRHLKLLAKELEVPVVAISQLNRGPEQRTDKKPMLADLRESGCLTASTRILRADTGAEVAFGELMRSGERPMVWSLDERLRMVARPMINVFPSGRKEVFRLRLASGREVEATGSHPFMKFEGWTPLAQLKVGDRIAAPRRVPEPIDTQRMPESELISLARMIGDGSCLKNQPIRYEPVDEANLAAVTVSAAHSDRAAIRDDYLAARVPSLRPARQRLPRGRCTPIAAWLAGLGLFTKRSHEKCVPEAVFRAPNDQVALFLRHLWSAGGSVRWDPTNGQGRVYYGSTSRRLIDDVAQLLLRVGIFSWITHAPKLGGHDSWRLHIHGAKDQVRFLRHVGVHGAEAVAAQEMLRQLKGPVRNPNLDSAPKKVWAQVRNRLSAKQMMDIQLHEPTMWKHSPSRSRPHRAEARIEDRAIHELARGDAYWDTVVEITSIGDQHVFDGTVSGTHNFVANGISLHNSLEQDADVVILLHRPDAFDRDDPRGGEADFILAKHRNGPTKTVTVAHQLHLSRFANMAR

[18] = biological target: Benomyl/methotrexate resistance protein (Candida albicans, UniProt P28873); assay: CaMdr1 efflux pump inhibitor potency, dose response, singleplex, Cherry Pick1 hits (AID 588608); assay type: functional
[19] = cytotoxicity in HEK-293T cells, dose response, cytotoxicity control for BCR NF-kB inhibitor project, luminescence, B-cell screen hits (AID 489021); assay type: functional, cell-based;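 also: HEK-293T cells carrying an NF-kB luciferase reporter; cells exposed to compound for about 14 hours before viability readout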
[20] = Luminescent dose response cell-based high throughput screening assay for inhibitors of the Janus kinase 2 mutant JAK2V617F. [Related pubchem assays: 1446 (Primary screen.), 1521 (Confirmation assay.), 1486 (Counter screen.)]; assay type: functional
Vero = assay: cells; assay type: functional; settings: Chlorocebus sabaeus
[21] = Intein inhibitors as potential Tuberculosis drugs, a cytotoxicity screen. [Related pubchem assays (depositor defined):AID2221, AID2223, AID434968, AID435010, AID449749, AID449750, AID489010]; assay type: functional
[22] = biological target: Sphingosine 1-phosphate receptor 4 (Homo sapiens, UniProt O95977); assay: S1P4 receptor agonists, human, late-stage follow-up, cell-based, fluorescence, synthesized compounds (AID 463107); assay type: functional
Chain of Sphingosine 1-phosphate receptor 4 (O95977 whole entry): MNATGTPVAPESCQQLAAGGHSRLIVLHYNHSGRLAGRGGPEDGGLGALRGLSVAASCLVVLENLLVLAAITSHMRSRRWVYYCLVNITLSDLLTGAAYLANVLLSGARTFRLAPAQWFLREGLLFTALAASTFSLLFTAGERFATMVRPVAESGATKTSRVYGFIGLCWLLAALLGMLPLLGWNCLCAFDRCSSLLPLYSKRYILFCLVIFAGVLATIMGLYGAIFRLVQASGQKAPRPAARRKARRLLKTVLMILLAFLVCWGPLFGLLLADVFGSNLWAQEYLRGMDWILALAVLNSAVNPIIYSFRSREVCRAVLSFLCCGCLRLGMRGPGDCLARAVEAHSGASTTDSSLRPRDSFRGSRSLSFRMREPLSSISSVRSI

Chain of Paired box protein Pax-8 (Q06710 whole entry): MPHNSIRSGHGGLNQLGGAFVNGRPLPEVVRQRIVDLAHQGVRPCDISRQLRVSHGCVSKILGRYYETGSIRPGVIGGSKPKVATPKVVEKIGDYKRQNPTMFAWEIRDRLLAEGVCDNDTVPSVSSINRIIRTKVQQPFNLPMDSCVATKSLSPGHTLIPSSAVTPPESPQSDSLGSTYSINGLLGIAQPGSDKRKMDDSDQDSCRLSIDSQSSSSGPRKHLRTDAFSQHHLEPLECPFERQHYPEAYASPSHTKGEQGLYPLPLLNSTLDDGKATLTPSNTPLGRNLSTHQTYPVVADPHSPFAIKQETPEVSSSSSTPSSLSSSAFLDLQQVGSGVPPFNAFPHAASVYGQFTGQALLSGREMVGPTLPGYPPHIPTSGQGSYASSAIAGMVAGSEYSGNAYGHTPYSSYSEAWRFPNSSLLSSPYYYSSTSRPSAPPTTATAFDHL
Chain of Benomyl/methotrexate resistance protein (P28873 whole entry): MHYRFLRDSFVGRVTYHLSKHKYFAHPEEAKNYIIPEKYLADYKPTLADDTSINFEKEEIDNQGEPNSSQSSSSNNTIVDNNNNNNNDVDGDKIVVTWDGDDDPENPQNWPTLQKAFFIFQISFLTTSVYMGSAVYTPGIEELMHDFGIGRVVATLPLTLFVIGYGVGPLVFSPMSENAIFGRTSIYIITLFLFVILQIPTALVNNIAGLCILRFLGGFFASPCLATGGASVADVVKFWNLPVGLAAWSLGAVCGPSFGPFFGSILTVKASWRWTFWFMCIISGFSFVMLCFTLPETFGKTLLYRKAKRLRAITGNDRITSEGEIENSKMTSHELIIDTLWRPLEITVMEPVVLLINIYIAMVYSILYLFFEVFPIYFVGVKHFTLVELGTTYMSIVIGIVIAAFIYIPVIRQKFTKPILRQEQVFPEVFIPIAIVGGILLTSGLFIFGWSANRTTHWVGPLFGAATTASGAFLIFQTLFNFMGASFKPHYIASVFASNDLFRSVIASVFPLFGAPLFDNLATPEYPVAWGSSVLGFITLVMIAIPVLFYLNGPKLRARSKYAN
Chain of Glutathione S-transferase omega-1 (P78417 whole entry): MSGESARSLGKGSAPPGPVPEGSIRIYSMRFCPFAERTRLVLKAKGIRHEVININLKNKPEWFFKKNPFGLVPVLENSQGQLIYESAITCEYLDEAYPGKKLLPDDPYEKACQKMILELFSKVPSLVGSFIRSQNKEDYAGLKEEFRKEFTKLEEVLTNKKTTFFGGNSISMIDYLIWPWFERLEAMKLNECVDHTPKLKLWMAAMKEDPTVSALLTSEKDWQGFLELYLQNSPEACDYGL

In the case of `Cc1cc(C)c2sc(N(CCCN(C)C)C(=O)c3ccc(S(=O)(=O)N4CCc5ccccc5C4)cc3)nc2c1`, the IC50 [1] is reported as 10 µM (active), the EC50 (BJ [2]) is reported as 1.57 µM (active) and the IC50 [3] is reported as 4.64 µM (active). For the same compound, the EC50 [4] was > 100 µM (inactive), the EC50 (BJ [5]) was 2.54 µM (inconclusive) and the IC50 (Bcl-2-related protein A1) was > 20 µM (inactive). The EC50 (BJ [6]) was 9.56 µM (active) and the EC50 [7] was 3.68 µM (active).

For `COc1ccc(C(C(=O)NC2CCCCC2)N(C(=O)CCl)c2cccc(Cl)c2)cc1` (stereo unspecified), the AC50 (Paired box protein Pax-8) was < 0.5 µM (active), the EC50 (BJ [8]) was 0.122 µM (active) and the EC50 (Protein RecA) was 0.202 µM (active). The EC50 [9] was 1.09 µM (active), the AC50 [10] was 1.02 µM (active) and the EC50 [11] was 0.691 µM (active). The EC50 (BJ [2]) was 0.176 µM (inconclusive), the EC50 [12] was 1.36 µM (active) and the IC50 [13] was 0.032 µM (active). For the same compound, the EC50 (BJ [5]) was 4.57 µM (active), the EC50 (BJ [6]) was 0.987 µM (inconclusive) and the EC50 [7] was 0.518 µM (active).

In the case of `CCCCN=c1nc(S)n(-c2ccccc2)c(C)c1C(C)=O`, the AC50 [14] is reported as > 350 µM (inactive), the AC50 [15] is reported as > 350 µM (inactive) and the AC50 [16] is reported as > 350 µM (inactive).

For `COc1ccc2nc(C)cc(Sc3nc4ccccc4s3)c2c1`, the AC50 [17] was 2.87 µM (active), the EC50 (Protein RecA) was 2.89 µM (active) and the EC50 [18] was 0.479 µM (active). The IC50 [19] was > 80 µM (inactive), the IC50 [20] was 1.91 µM (active) and the CC50 (Vero) was 14.3 µM (active). For the same compound, the CC50 [21] was 26.4 µM (active).

With `Cc1ccc(OCCc2ccc(Cl)cc2Cl)c([N+](=O)[O-])n1` the EC50 [22] was 2.1 µM (active).
